Measured values as given in patent US20240109972A1, “ANTIBODY AND TAXANE COMBINATION THERAPY” (Genmab A/S, priority 2020, published 2024).

Legend:
cervical cancer = details: first-line, combined with paclitaxel and platinum (cisplatin or carboplatin) or paclitaxel and topotecan; cited from earlier work
[1] = tested on: MC38 mouse colon cancer cells; format: in vivo; details: mbsIgG2a-PD-L1×4-1BB 0.5 mg/kg 2QW×3, docetaxel 10 mg/kg QW×3; FIG. 7A
Procedure: MC38 mouse colon cancer cells were cultured in Dulbecco's Modified Eagle Medium supplemented with 10% heat-inactivated fetal bovine serum at 37° C., 5% CO2. MC38 cells were harvested from a cell culture growing in log-phase and quantified.
MC38 cells (1×10^6 tumor cells in 100 μL PBS) were injected subcutaneously in the right lower flank of female C57BL/6 mice (obtained from Vital River Laboratories Research Models and Services; age 6-8 weeks at start of experiment).
Tumor growth was evaluated three times per week using a caliper. Tumor volumes (mm^3) were calculated from caliper measurements as ([length]×[width]^2)/2, where the length is the longest tumor dimension, and the width is the longest tumor dimension perpendicular to the length.
Mice were randomized into groups (n=10/group) with an average tumor volume of 64 mm^3 prior to treatment. […]
The mice were monitored daily for clinical signs of illness. […]

[2] = GEN1046 in combination with docetaxel in metastatic NSCLC subjects, adverse effects; format: in vivo, human
Procedure: Docetaxel was administered at a dose of 55 mg/m^2 or 75 mg/m^2 depending on the number of prior Dose Limiting Toxicities observed. The maximum tested dose of docetaxel was be 75 mg/m^2.
Subjects with a histological or cytological diagnosis of non-squamous NSCLC must not have an EGFR-sensitizing mutation and/or ALK translocation/ROS1 rearrangement. EGFR sensitizing mutations are those mutations that are amenable to treatment with an approved TKI. Documentation of EGFR and ALK status should be available per local assessment.

bevacizumab
Median OS (cervical cancer): approximately 18 months
ORR (cervical cancer): 48%

CC(=O)O[C@@]12CO[C@@H]1C[C@H](O)[C@@]1(C)C(=O)[C@H](O)C3=C(C)[C@@H](OC(=O)[C@H](O)[C@@H](NC(=O)OC(C)(C)C)c4ccccc4)C[C@@](O)([C@@H](OC(=O)c4ccccc4)[C@H]21)C3(C)C [Docetaxel, reference compound]
Tumor outgrowth [1]: comparable to the PBS-treated group
Anemia Grade 1, Docetaxel-related ([2]; 55 mg/m^2 Docetaxel + GEN1046): 1
Anemia Grade 2, Docetaxel-related ([2]; 55 mg/m^2 Docetaxel + GEN1046): 2
Anemia Grade 3, Docetaxel-related ([2]; 55 mg/m^2 Docetaxel + GEN1046): 2
Anemia Grade 4, Docetaxel-related ([2]; 55 mg/m^2 Docetaxel + GEN1046): 0
Anemia Grade 5, Docetaxel-related ([2]; 55 mg/m^2 Docetaxel + GEN1046): 0
Blood alkaline phosphatase increase Grade 1, Docetaxel-related ([2]; 55 mg/m^2 Docetaxel + GEN1046): 0
Blood alkaline phosphatase increase Grade 2, Docetaxel-related ([2]; 55 mg/m^2 Docetaxel + GEN1046): 1
Blood alkaline phosphatase increase Grade 3, Docetaxel-related ([2]; 55 mg/m^2 Docetaxel + GEN1046): 1
Blood alkaline phosphatase increase Grade 4, Docetaxel-related ([2]; 55 mg/m^2 Docetaxel + GEN1046): 0
Blood alkaline phosphatase increase Grade 5, Docetaxel-related ([2]; 55 mg/m^2 Docetaxel + GEN1046): 0
Dysgeusia Grade 1, Docetaxel-related ([2]; 55 mg/m^2 Docetaxel + GEN1046): 0
Dysgeusia Grade 2, Docetaxel-related ([2]; 55 mg/m^2 Docetaxel + GEN1046): 1
Dysgeusia Grade 3, Docetaxel-related ([2]; 55 mg/m^2 Docetaxel + GEN1046): 0
Dysgeusia Grade 4, Docetaxel-related ([2]; 55 mg/m^2 Docetaxel + GEN1046): 0
Dysgeusia Grade 5, Docetaxel-related ([2]; 55 mg/m^2 Docetaxel + GEN1046): 0
Fatigue Grade 1, Docetaxel-related ([2]; 55 mg/m^2 Docetaxel + GEN1046): 0
Fatigue Grade 2, Docetaxel-related ([2]; 55 mg/m^2 Docetaxel + GEN1046): 2
Fatigue Grade 3, Docetaxel-related ([2]; 55 mg/m^2 Docetaxel + GEN1046): 1
Fatigue Grade 4, Docetaxel-related ([2]; 55 mg/m^2 Docetaxel + GEN1046): 0
Fatigue Grade 5, Docetaxel-related ([2]; 55 mg/m^2 Docetaxel + GEN1046): 0
Febrile neutropenia Grade 1, Docetaxel-related ([2]; 55 mg/m^2 Docetaxel + GEN1046): 0
Febrile neutropenia Grade 2, Docetaxel-related ([2]; 55 mg/m^2 Docetaxel + GEN1046): 0
Febrile neutropenia Grade 3, Docetaxel-related ([2]; 55 mg/m^2 Docetaxel + GEN1046): 1
Febrile neutropenia Grade 4, Docetaxel-related ([2]; 55 mg/m^2 Docetaxel + GEN1046): 0
Febrile neutropenia Grade 5, Docetaxel-related ([2]; 55 mg/m^2 Docetaxel + GEN1046): 0
Hypokalemia Grade 1, Docetaxel-related ([2]; 55 mg/m^2 Docetaxel + GEN1046): 0
Hypokalemia Grade 2, Docetaxel-related ([2]; 55 mg/m^2 Docetaxel + GEN1046): 1
Hypokalemia Grade 3, Docetaxel-related ([2]; 55 mg/m^2 Docetaxel + GEN1046): 0
Hypokalemia Grade 4, Docetaxel-related ([2]; 55 mg/m^2 Docetaxel + GEN1046): 0
Hypokalemia Grade 5, Docetaxel-related ([2]; 55 mg/m^2 Docetaxel + GEN1046): 0
Hypomagnesaemia Grade 1, Docetaxel-related ([2]; 55 mg/m^2 Docetaxel + GEN1046): 1
Hypomagnesaemia Grade 2, Docetaxel-related ([2]; 55 mg/m^2 Docetaxel + GEN1046): 0
Hypomagnesaemia Grade 3, Docetaxel-related ([2]; 55 mg/m^2 Docetaxel + GEN1046): 0
Hypomagnesaemia Grade 4, Docetaxel-related ([2]; 55 mg/m^2 Docetaxel + GEN1046): 0
Hypomagnesaemia Grade 5, Docetaxel-related ([2]; 55 mg/m^2 Docetaxel + GEN1046): 0
Hyponatremia Grade 1, Docetaxel-related ([2]; 55 mg/m^2 Docetaxel + GEN1046): 1
Hyponatremia Grade 2, Docetaxel-related ([2]; 55 mg/m^2 Docetaxel + GEN1046): 0
Hyponatremia Grade 3, Docetaxel-related ([2]; 55 mg/m^2 Docetaxel + GEN1046): 0
Hyponatremia Grade 4, Docetaxel-related ([2]; 55 mg/m^2 Docetaxel + GEN1046): 0
Hyponatremia Grade 5, Docetaxel-related ([2]; 55 mg/m^2 Docetaxel + GEN1046): 0
Infusion site extravasation Grade 1, Docetaxel-related ([2]; 55 mg/m^2 Docetaxel + GEN1046): 1
Infusion site extravasation Grade 2, Docetaxel-related ([2]; 55 mg/m^2 Docetaxel + GEN1046): 0
Infusion site extravasation Grade 3, Docetaxel-related ([2]; 55 mg/m^2 Docetaxel + GEN1046): 0
Infusion site extravasation Grade 4, Docetaxel-related ([2]; 55 mg/m^2 Docetaxel + GEN1046): 0
Infusion site extravasation Grade 5, Docetaxel-related ([2]; 55 mg/m^2 Docetaxel + GEN1046): 0
Nausea Grade 1, Docetaxel-related ([2]; 55 mg/m^2 Docetaxel + GEN1046): 1
Nausea Grade 2, Docetaxel-related ([2]; 55 mg/m^2 Docetaxel + GEN1046): 0
Nausea Grade 3, Docetaxel-related ([2]; 55 mg/m^2 Docetaxel + GEN1046): 0
Nausea Grade 4, Docetaxel-related ([2]; 55 mg/m^2 Docetaxel + GEN1046): 0
Nausea Grade 5, Docetaxel-related ([2]; 55 mg/m^2 Docetaxel + GEN1046): 0
Neutrophil count decreased Grade 1, Docetaxel-related ([2]; 55 mg/m^2 Docetaxel + GEN1046): 0
Neutrophil count decreased Grade 2, Docetaxel-related ([2]; 55 mg/m^2 Docetaxel + GEN1046): 0
Neutrophil count decreased Grade 3, Docetaxel-related ([2]; 55 mg/m^2 Docetaxel + GEN1046): 0
Neutrophil count decreased Grade 4, Docetaxel-related ([2]; 55 mg/m^2 Docetaxel + GEN1046): 1
Neutrophil count decreased Grade 5, Docetaxel-related ([2]; 55 mg/m^2 Docetaxel + GEN1046): 0
Pyrexia Grade 1, Docetaxel-related ([2]; 55 mg/m^2 Docetaxel + GEN1046): 1
Pyrexia Grade 2, Docetaxel-related ([2]; 55 mg/m^2 Docetaxel + GEN1046): 1
Pyrexia Grade 3, Docetaxel-related ([2]; 55 mg/m^2 Docetaxel + GEN1046): 0
Pyrexia Grade 4, Docetaxel-related ([2]; 55 mg/m^2 Docetaxel + GEN1046): 0
Pyrexia Grade 5, Docetaxel-related ([2]; 55 mg/m^2 Docetaxel + GEN1046): 0
Vomiting Grade 1, Docetaxel-related ([2]; 55 mg/m^2 Docetaxel + GEN1046): 0
Vomiting Grade 2, Docetaxel-related ([2]; 55 mg/m^2 Docetaxel + GEN1046): 2
Vomiting Grade 3, Docetaxel-related ([2]; 55 mg/m^2 Docetaxel + GEN1046): 0
Vomiting Grade 4, Docetaxel-related ([2]; 55 mg/m^2 Docetaxel + GEN1046): 0
Vomiting Grade 5, Docetaxel-related ([2]; 55 mg/m^2 Docetaxel + GEN1046): 0
White blood cell count decreased Grade 1, Docetaxel-related ([2]; 55 mg/m^2 Docetaxel + GEN1046): 0
White blood cell count decreased Grade 2, Docetaxel-related ([2]; 55 mg/m^2 Docetaxel + GEN1046): 0
White blood cell count decreased Grade 3, Docetaxel-related ([2]; 55 mg/m^2 Docetaxel + GEN1046): 0
White blood cell count decreased Grade 4, Docetaxel-related ([2]; 55 mg/m^2 Docetaxel + GEN1046): 1
White blood cell count decreased Grade 5, Docetaxel-related ([2]; 55 mg/m^2 Docetaxel + GEN1046): 0
Anaemia Grade 1, Docetaxel-related ([2]; 75 mg/m^2 Docetaxel + GEN1046): 0
Anaemia Grade 2, Docetaxel-related ([2]; 75 mg/m^2 Docetaxel + GEN1046): 0
Anaemia Grade 3, Docetaxel-related ([2]; 75 mg/m^2 Docetaxel + GEN1046): 1
Anaemia Grade 4, Docetaxel-related ([2]; 75 mg/m^2 Docetaxel + GEN1046): 0
Anaemia Grade 5, Docetaxel-related ([2]; 75 mg/m^2 Docetaxel + GEN1046): 0
Diarrhea Grade 1, Docetaxel-related ([2]; 75 mg/m^2 Docetaxel + GEN1046): 1
Diarrhea Grade 2, Docetaxel-related ([2]; 75 mg/m^2 Docetaxel + GEN1046): 0
Diarrhea Grade 3, Docetaxel-related ([2]; 75 mg/m^2 Docetaxel + GEN1046): 0
Diarrhea Grade 4, Docetaxel-related ([2]; 75 mg/m^2 Docetaxel + GEN1046): 0
Diarrhea Grade 5, Docetaxel-related ([2]; 75 mg/m^2 Docetaxel + GEN1046): 0
Dyspnea Grade 1, Docetaxel-related ([2]; 75 mg/m^2 Docetaxel + GEN1046): 0
Dyspnea Grade 2, Docetaxel-related ([2]; 75 mg/m^2 Docetaxel + GEN1046): 0
Dyspnea Grade 3, Docetaxel-related ([2]; 75 mg/m^2 Docetaxel + GEN1046): 0
Dyspnea Grade 4, Docetaxel-related ([2]; 75 mg/m^2 Docetaxel + GEN1046): 1
Dyspnea Grade 5, Docetaxel-related ([2]; 75 mg/m^2 Docetaxel + GEN1046): 0
Fatigue Grade 1, Docetaxel-related ([2]; 75 mg/m^2 Docetaxel + GEN1046): 1
Fatigue Grade 2, Docetaxel-related ([2]; 75 mg/m^2 Docetaxel + GEN1046): 2
Fatigue Grade 3, Docetaxel-related ([2]; 75 mg/m^2 Docetaxel + GEN1046): 0
Fatigue Grade 4, Docetaxel-related ([2]; 75 mg/m^2 Docetaxel + GEN1046): 0
Fatigue Grade 5, Docetaxel-related ([2]; 75 mg/m^2 Docetaxel + GEN1046): 0
Gastrooesophageal reflux disease Grade 1, Docetaxel-related ([2]; 75 mg/m^2 Docetaxel + GEN1046): 0
Gastrooesophageal reflux disease Grade 2, Docetaxel-related ([2]; 75 mg/m^2 Docetaxel + GEN1046): 1
Gastrooesophageal reflux disease Grade 3, Docetaxel-related ([2]; 75 mg/m^2 Docetaxel + GEN1046): 0
Gastrooesophageal reflux disease Grade 4, Docetaxel-related ([2]; 75 mg/m^2 Docetaxel + GEN1046): 0
Gastrooesophageal reflux disease Grade 5, Docetaxel-related ([2]; 75 mg/m^2 Docetaxel + GEN1046): 0
Hiccups Grade 1, Docetaxel-related ([2]; 75 mg/m^2 Docetaxel + GEN1046): 0
Hiccups Grade 2, Docetaxel-related ([2]; 75 mg/m^2 Docetaxel + GEN1046): 1
Hiccups Grade 3, Docetaxel-related ([2]; 75 mg/m^2 Docetaxel + GEN1046): 0
Hiccups Grade 4, Docetaxel-related ([2]; 75 mg/m^2 Docetaxel + GEN1046): 0
Hiccups Grade 5, Docetaxel-related ([2]; 75 mg/m^2 Docetaxel + GEN1046): 0
Lacrimation increased Grade 1, Docetaxel-related ([2]; 75 mg/m^2 Docetaxel + GEN1046): 1
Lacrimation increased Grade 2, Docetaxel-related ([2]; 75 mg/m^2 Docetaxel + GEN1046): 0
Lacrimation increased Grade 3, Docetaxel-related ([2]; 75 mg/m^2 Docetaxel + GEN1046): 0
Lacrimation increased Grade 4, Docetaxel-related ([2]; 75 mg/m^2 Docetaxel + GEN1046): 0
Lacrimation increased Grade 5, Docetaxel-related ([2]; 75 mg/m^2 Docetaxel + GEN1046): 0
Nausea Grade 1, Docetaxel-related ([2]; 75 mg/m^2 Docetaxel + GEN1046): 1
Nausea Grade 2, Docetaxel-related ([2]; 75 mg/m^2 Docetaxel + GEN1046): 2
Nausea Grade 3, Docetaxel-related ([2]; 75 mg/m^2 Docetaxel + GEN1046): 0
Nausea Grade 4, Docetaxel-related ([2]; 75 mg/m^2 Docetaxel + GEN1046): 0
Nausea Grade 5, Docetaxel-related ([2]; 75 mg/m^2 Docetaxel + GEN1046): 0
Neutrophil count decreased Grade 1, Docetaxel-related ([2]; 75 mg/m^2 Docetaxel + GEN1046): 0
Neutrophil count decreased Grade 2, Docetaxel-related ([2]; 75 mg/m^2 Docetaxel + GEN1046): 0
Neutrophil count decreased Grade 3, Docetaxel-related ([2]; 75 mg/m^2 Docetaxel + GEN1046): 1
Neutrophil count decreased Grade 4, Docetaxel-related ([2]; 75 mg/m^2 Docetaxel + GEN1046): 1
Neutrophil count decreased Grade 5, Docetaxel-related ([2]; 75 mg/m^2 Docetaxel + GEN1046): 0
Not coded: periphery sensory neuropathy Grade 1, Docetaxel-related ([2]; 75 mg/m^2 Docetaxel + GEN1046): 1
Not coded: periphery sensory neuropathy Grade 2, Docetaxel-related ([2]; 75 mg/m^2 Docetaxel + GEN1046): 0
Not coded: periphery sensory neuropathy Grade 3, Docetaxel-related ([2]; 75 mg/m^2 Docetaxel + GEN1046): 0
Not coded: periphery sensory neuropathy Grade 4, Docetaxel-related ([2]; 75 mg/m^2 Docetaxel + GEN1046): 0
Not coded: periphery sensory neuropathy Grade 5, Docetaxel-related ([2]; 75 mg/m^2 Docetaxel + GEN1046): 0
Vomiting Grade 1, Docetaxel-related ([2]; 75 mg/m^2 Docetaxel + GEN1046): 1
Vomiting Grade 2, Docetaxel-related ([2]; 75 mg/m^2 Docetaxel + GEN1046): 0
Vomiting Grade 3, Docetaxel-related ([2]; 75 mg/m^2 Docetaxel + GEN1046): 0
Vomiting Grade 4, Docetaxel-related ([2]; 75 mg/m^2 Docetaxel + GEN1046): 0
Vomiting Grade 5, Docetaxel-related ([2]; 75 mg/m^2 Docetaxel + GEN1046): 0
Hepatotoxicity ([2]; GEN1046 in combination with Docetaxel): No reported drug-related hepatoxicities
